≈ marks a conversion by molar mass, not a printed value.

The values below come from PMC11013662, “New Thiosemicarbazide Derivatives with Multidirectional Biological Action” (Molecules, 2024).

The subject of data set [1] is SW 620 human metastatic colon cancer cells. In words: MTT cytotoxicity assay. As to conditions: for IC50: Homo sapiens, SW 620, MTT, 72 h; for SI (Selectivity Index): IC50 for normal cell line (V79)/IC50 cancer cell line (SW 620). It counts as cell-based. How it is done:
Both lines were obtained from American Type Culture Collection (ATCC, Rockville, MD, USA). The culture used to grow the SW 620 cells was prepared in MEM (ThermoSci, Waltham, MA, USA). The V79 cells were cultured in RPMI (Biowest SAS, Nuaillé, France) with the addition of 20 mM HEPES (Biowest, Nuaillé, France), 10% fetal bovine serum (FBS, Sigma-Aldrich, St. Louis, MO, USA), 100 µg/mL of streptomycin, and 100 U/mL of penicillin (Gibco, Grand Island, NY, USA). […] The MTT assay was used to establish the cytotoxic activity of the studied compounds. […] The process starts with the preparation of 96-well plates by placing cells at a density of 1 × 10^4 per well and incubating them for 24 h to adhere. […] Next, cells were incubated for 72 h at 37 °C with a 5% CO2. Then, a solution of MTT (0.5 mg/mL) was added to each well and plates were incubated for 4 h more in the same conditions. To dissolve precipitated formazan crystals, a mixture of DMSO and isopropanol (in a 1:1 ratio, v/v) was used. […] Cell viability was determined as the percentage of MTT reduction in the treated cells compared to the control group (unexposed cells). The relative MTT level, represented as a percentage, was calculated using the formula [A]/[B] × 100, where [A] stands for the absorbance of the treated cell sample and [B] for the absorbance of unexposed to studied compounds sample (control group).

Data set [2] relates to V79 Chinese hamster lung cells. In words: MTT cytotoxicity assay. It counts as cell-based. As to conditions: Cricetulus griseus, V 79 normal cells, 72 h. How it is done: Both lines were obtained from American Type Culture Collection (ATCC, Rockville, MD, USA). The culture used to grow the SW 620 cells was prepared in MEM (ThermoSci, Waltham, MA, USA). The V79 cells were cultured in RPMI (Biowest SAS, Nuaillé, France) with the addition of 20 mM HEPES (Biowest, Nuaillé, France), 10% fetal bovine serum (FBS, Sigma-Aldrich, St. Louis, MO, USA), 100 µg/mL of streptomycin, and 100 U/mL of penicillin (Gibco, Grand Island, NY, USA). The eligible level of cells confluence was 80–90%, and both cell cultures were maintained in a humidified incubator set at 37 °C with 5% CO2 until they reached it.
The MTT assay was used to establish the cytotoxic activity of the studied compounds. The mechanism of this method relies on enzymatic conversion of 3-(4,5-dimethylthiazol-2-yl)-2,5-diphentyltetrazolium bromide salt (MTT) into insoluble formazan crystals by mitochondrial dehydrogenases within viable cells.
The process starts with the preparation of 96-well plates by placing cells at a density of 1 × 10^4 per well and incubating them for 24 h to adhere. Afterwards, the cells were treated with different concentrations of thiosemicarbazide derivatives, from 20 to 100 µM, except the control group which remained not exposed. Next, cells were incubated for 72 h at 37 °C with a 5% CO2. Then, a solution of MTT (0.5 mg/mL) was added to each well and plates were incubated for 4 h more in the same conditions.
To dissolve precipitated formazan crystals, a mixture of DMSO and isopropanol (in a 1:1 ratio, v/v) was used. For the spectrophotometric survey, we used MultiscanGo from Thermo Scientific with the wavelength value set at 570 nm to measure absorbance.
Cell viability was determined as the percentage of MTT reduction in the treated cells compared to the control group (unexposed cells). The relative MTT level, represented as a percentage, was calculated using the formula [A]/[B] × 100, where [A] stands for the absorbance of the treated cell sample and [B] for the absorbance of unexposed to studied compounds sample (control group). […] To calculate IC50 values (concentration at which 50% of cell viability is inhibited), we used GraphPad Prism 8.0.1 software.
A general note: Tetrazolium assays rely on reduction of a dye to a coloured formazan, in cell work by metabolically active cells.

Another data set has as its system Rhabditis sp. In words: Anthelmintic activity assay on nematode culture. It counts as cell-based. Conditions: 24 h exposure. How it is done: All compounds in the anthelmintic activity study were prepared in the form of a homogeneous suspension. The anthelmintic activity was tested according to the procedure developed by Bogucka-Kock and Kołodziej. The tested compounds were added to the culture of Rhabditis sp. at experimentally determined concentrations. […] LC50 values (lethal concentration) were determined for two active substances. It was defined as the amount of the substance causing the death of 50% of nematodes.

As for `CCCCNC(=S)NNC(=O)c1cccc(C(F)(F)F)c1` [Compound 3c, 4-Butyl-1-(3-trifluoromethylbenzoyl)thiosemicarbazide], the melting point (as a rule, the temperature of the solid-liquid transition) worked out at 161.6 °C. In addition, in data set [1], the IC50 (commonly the midpoint of a concentration-inhibition curve) is greater than 100 µM and the “SI (Selectivity Index)” value was 1. Moreover, the concentration for half-maximal inhibition (IC50) in data set [2] was greater than 100 µM.

The compound `O=C(NNC(=S)Nc1cccc(F)c1)c1cccc(C(F)(F)F)c1` [Compound 3e, 1-(3-Trifluoromethylbenzoyl)-4-(3-fluorophenyl)thiosemicarbazide] came in with a melting point of 174.4 °C. Besides, the IC50 in data set [1] came out at 89.9 ± 14.6 µM. Moreover, the IC50 in data set [2] was greater than 100 µM.

For the compound `O=C(NNC(=S)Nc1cccc(Cl)c1)c1cccc(C(F)(F)F)c1` [Compound 3a, 4-(3-Chlorophenyl)-1-(3-trifluoromethylbenzoyl)thiosemicarbazide], in the data set on Rhabditis sp., the LC50 (as a rule, the concentration lethal to half of the exposed cells or organisms) was determined as 14800 µg/mL (≈ 39.5 mM). In addition, the IC50 is 69 ± 12.6 µM in data set [1] and 40.5 ± 3.83 µM in data set [2]. Further, in data set [1], the “SI (Selectivity Index)” value is 0.59.

Regarding `Cc1cccc(NC(=S)NNC(=O)c2cccc(C(F)(F)F)c2)c1` [Compound 3d, 1-(3-Trifluoromethylbenzoyl)-4-(3-methylphenyl)thiosemicarbazide], the melting point came out at 230.7 °C. In addition, in data set [1], the IC50 is greater than 100 µM and the “SI (Selectivity Index)” value was found to be 0.69. In data set [2], this compound returned an IC50 of 69.1 ± 5.45 µM.

Take `O=C(NNC(=S)Nc1ccccc1)c1cccc(C(F)(F)F)c1` [Compound 3f, 1-(3-Trifluoromethylbenzoyl)-4-(phenyl)thiosemicarbazide]: the melting point amounted to 176.4 °C. In data set [1], the IC50 was greater than 100 µM and the “SI (Selectivity Index)” value is on record as 1. Also, the 50% inhibitory concentration (IC50) in data set [2] was greater than 100 µM.

Consider `FC(F)(F)c1cccc(-c2n[nH]c(=S)n2-c2cccc(Cl)c2)c1` [Compound 4, 4-(3-Chlorophenyl)-5-(3-trifluoromethylphenyl)-2,4-dihydro-3H-1,2,4-triazole-3-thione], for which the LC50 with Rhabditis sp. amounted to 370 µg/mL (≈ 1.04 mM). Moreover, in data set [1], the IC50 is greater than 100 µM and the “SI (Selectivity Index)” value was 1. For the same compound, in data set [2], the IC50 is greater than 100 µM.

On to `COc1cccc(NC(=S)NNC(=O)c2cccc(C(F)(F)F)c2)c1` [Compound 3b, 1-(3-Trifluoromethylbenzoyl)-4-(3-methoxyphenyl)thiosemicarbazide], for which the melting point turned out to be 181.3 °C. In addition, in data set [1], the IC50 was greater than 100 µM and the “SI (Selectivity Index)” value is reported as 1. Further, in data set [2], the IC50 is greater than 100 µM.
